In US7786140B2, “Piperidine derivative having NMDA receptor antagonistic activity” (Shionogi & Co., Ltd., priority 2003, dated 2010):
Like-named read-outs stand apart in the source and are kept apart here.

How the values were obtained:
PCP receptor = test: Experiment of binding to PCP receptor: competitive binding with [3H] MK-801, rat cerebral cortex membrane preparation; conditions: for IC50: [3H] MK-801 2 nM, rat cerebral cortex membranes
Procedure: Experiment of Binding to PCP Receptor
MK-801 is reported to bind to PCP receptor and cause psychosis.
(§1) Male Slc: Wistar rats were used and after beheading of the rats, the brains were picked out and the cerebral cortex was fractionated. The cerebral cortex was homogenized with ice-cooled 5 mM Tris-HCl buffer (pH 7.8) in an amount 20 times as much and centrifuged at 4° C. and 27,500×g for 10 minutes. The obtained precipitate was suspended with the same buffer solution and again centrifuged. These steps were repeated three times and the obtained precipitate was suspended with the buffer solution and stored at −80° C. Immediately before the experiment, the stored suspension was thawed at room temperature and centrifuged at 4° C. and 27,500×g for 10 minutes and the obtained precipitate was suspended with the buffer solution. Further the resulting solution was diluted 2.5 times with the buffer solution and the obtained solution was used as a membrane preparation for the experiment.
For the binding experiment, 10 μL of test compounds with different concentrations and 10 μL of marked ligand [^3H] MK-801 were added to 480 μL of the above-mentioned membrane preparation sample and incubated at 25° C. for 60 minutes. The final concentration of [^3H] MK-801 was adjusted to be 2 nM. DMSO, which is a solvent, was used for measurement of the total binding quantity and 10 μM of (+)MK-801 was used for measurement of the non-specific binding quantity. After the incubation, the bonded bodies and the free bodies were separated by Whatman GF/C filter paper (manufactured by Whatman Inc.) and the filter paper was washed four times with 2.5 mL of the ice-cooled buffer solution. The filter paper was immersed in a liquid scintillation in a vial (Clear-Sol I, manufactured by Nacalai Tesque Co., Ltd.) and the radiation dose (dpm) was measured by a liquid scintillation counter. The binding inhibition ratio (%) was calculated from the measured values according to the following equation and the dose for inhibiting 50% binding (IC50) was calculated.
(§2) Binding inhibition ratio (%)=100−[(binding quantity in the presence of the test compound−non-specific binding quantity)/(total binding quantity−non-specific binding quantity)]×100

NR1/NR2B receptor [1] = target: T1, NR1/NR2B receptor (Rattus norvegicus, UniProt P35439+Q00960); test: Experiment of binding to NMDA receptor: competitive binding with [3H]-Ifenprodil, rat cerebral cortex membrane preparation; conditions: [3H]-Ifenprodil 5 nM, GBR-12909 3 μM, rat cerebral cortex membranes
T1 construct: the obtained solution was used as a membrane preparation for the experiment; from tissue; host or cells: rat cerebral cortex membrane preparation
Procedure: Experiment of Binding to NMDA Receptor
Competitive binding assays of the test compounds (10, 18 and 19) were carried out using Ifenprodil, which is an antagonist specific for the NR1/NR2B subtype receptor, as a ligand.
as §1, with “were killed by beheading,” for “were used and after beheading of the rats,”, “ice-cooled 50” for “ice-cooled 5”, “(pH 7.4)” for “(pH 7.8)”, “times of the cerebral cortex” for “times as much”, “diluted 10” for “diluted 2.5”
For the binding experiment, 10 μL of test compounds with different concentrations, 10 μL of [^3H]-Ifenprodil, and 10 μL GBR-12909 were added to 470 μL of the above-mentioned membrane preparation and incubated at icing temperature for 120 minutes. The final concentration of [^3H]-Ifenprodil was adjusted to be 5 nM and the final concentration of GBR-12909 was adjusted to be 3 μM. DMSO, which is a solvent, was used for measurement of the total binding quantity and 100 μM of Ifenprodil was used for measurement of the non-specific binding quantity. In this connection, GBR-12909 was added to block the binding of [^3H]-Ifenprodil to the non-polyamine-sensitive site. After the incubation, the bounded bodies and the free bodies were separated by Whatman GF/C filter paper (Whatman Inc.) and the filter paper was washed four times with 2.5 mL of the ice-cooled buffer solution. The filter paper was immersed in a liquid scintillation (Clear-Sol I, Nacalai Tesque Co., Ltd.) in a vial and the radioactivity (dpm) was measured by a liquid scintillation counter. The binding inhibition ratio (%) was calculated from the measured values according to the following equation and the dose for inhibiting 50% binding (IC50) was calculated.
as §2

ICR type male mice = test: Analgesic effect in mouse formalin test; assay type: in vivo; conditions: for ED50: Mus musculus, injected into the vein 5 minutes before 2% formalin
Procedure: Analgesic Effect in Mouse Formalin Test
The pain behavior attributed to formalin can be classified into two time-dependent phases and mice show pain behaviors, so-called licking and biting. In the first phase, acute pain was caused within 5 minutes immediately after formalin administration, and in the second phase, inflammatory pain was caused for 20 minutes from 10 to 30 minutes after the administration. ICR type male mice (5-week old) were used for the experiment. Formalin (2%) was subcutaneously injected to the right hind paw of the mice. The test compound (18) was dissolved in a solution, DMSO:HCO50:saline=1.5:1:7.5 and injected in difference concentrations into the vein 5 minutes before the formalin administration. The pain behavior time was measured for 30 minutes after formalin administration. The pain behavior time is to be shortened in the case the test compound causes analgesic effect. The measured time is substituted in the following equation to calculate the analgesic ratio (%) and the dose for 50% efficacy (ED50) was calculated. Analgesic ratio (%)=[…]

NR1/NR2A receptor = NR1/NR2A receptor (Mus musculus, UniProt P35436+P35438); test: Electric physiological experiment: NMDA-induced inward current in Xenopus laevis oocytes expressing NMDA receptor subunits; assay type: cell-based; conditions: NMDA 100 μM and glycine 10 μM, -60 mV
Procedure: (§3) Expression and Electric Physiological Experiment of NMDA Receptor
(§4) Messenger RNA (mRNA) was transcribed with complementary DNA (cDNA) of mouse NMDA receptor subunits and the mRNA was injected in oocytes of Xenopus Laevis. From two days after the injection, the inward current induced by NMDA was recorded by two electrode membrane potential fixation apparatus. The injection amount of the mRNA was 0.6/0.6 ng on the basis of NR1/NR2B per one oocyte to co-expression of the subunits. Solutions of the test compound (18) with different concentrations were added to the oocytes and the inward current induced by NMDA was recorded by two electrode membrane potential fixation apparatus. The extercellular solution was Mg^2+-free ND96 (NaCl 96 mM, KCl 2 mM, CaCl2 1.8 mM, and Hepes 5 mM and pH=7.5) and the potential was retained at −60 mV. The NMDA current was induced by using NMDA 100 μM and glycine 10 μM. The measured values of the recorded inward current induced by NMDA were substituted in the following equation to calculate the electric response % and the dose for inhibiting 50% (IC50) were calculated. The IC50 values for the respective NR1/NR2A, C, and D receptors were calculated. Electric response (%)=(inward current induced by NMDA in the presence of the test compound/inward current induced by NMDA in the absence of the test compound)×100

NR1/NR2B receptor [2] = target: NR1/NR2B receptor (Mus musculus, UniProt P35438+Q01097); test: as above; assay type: cell-based
Procedure: as §3, §4

NR1/NR2C receptor = NR1/NR2C receptor (Mus musculus, UniProt P35438+Q01098); test: as above; assay type: cell-based; conditions: NMDA 100 μM and glycine 10 μM, -60 mV
Procedure: as §3, §4

NR1/NR2D receptor = NR1/NR2D receptor (Mus musculus, UniProt P35438+Q03391); test: as above; assay type: cell-based; conditions: NMDA 100 μM and glycine 10 μM, -60 mV
Procedure: as §3, §4

T1 sequence (Q00960 27-1482, other chains not shown): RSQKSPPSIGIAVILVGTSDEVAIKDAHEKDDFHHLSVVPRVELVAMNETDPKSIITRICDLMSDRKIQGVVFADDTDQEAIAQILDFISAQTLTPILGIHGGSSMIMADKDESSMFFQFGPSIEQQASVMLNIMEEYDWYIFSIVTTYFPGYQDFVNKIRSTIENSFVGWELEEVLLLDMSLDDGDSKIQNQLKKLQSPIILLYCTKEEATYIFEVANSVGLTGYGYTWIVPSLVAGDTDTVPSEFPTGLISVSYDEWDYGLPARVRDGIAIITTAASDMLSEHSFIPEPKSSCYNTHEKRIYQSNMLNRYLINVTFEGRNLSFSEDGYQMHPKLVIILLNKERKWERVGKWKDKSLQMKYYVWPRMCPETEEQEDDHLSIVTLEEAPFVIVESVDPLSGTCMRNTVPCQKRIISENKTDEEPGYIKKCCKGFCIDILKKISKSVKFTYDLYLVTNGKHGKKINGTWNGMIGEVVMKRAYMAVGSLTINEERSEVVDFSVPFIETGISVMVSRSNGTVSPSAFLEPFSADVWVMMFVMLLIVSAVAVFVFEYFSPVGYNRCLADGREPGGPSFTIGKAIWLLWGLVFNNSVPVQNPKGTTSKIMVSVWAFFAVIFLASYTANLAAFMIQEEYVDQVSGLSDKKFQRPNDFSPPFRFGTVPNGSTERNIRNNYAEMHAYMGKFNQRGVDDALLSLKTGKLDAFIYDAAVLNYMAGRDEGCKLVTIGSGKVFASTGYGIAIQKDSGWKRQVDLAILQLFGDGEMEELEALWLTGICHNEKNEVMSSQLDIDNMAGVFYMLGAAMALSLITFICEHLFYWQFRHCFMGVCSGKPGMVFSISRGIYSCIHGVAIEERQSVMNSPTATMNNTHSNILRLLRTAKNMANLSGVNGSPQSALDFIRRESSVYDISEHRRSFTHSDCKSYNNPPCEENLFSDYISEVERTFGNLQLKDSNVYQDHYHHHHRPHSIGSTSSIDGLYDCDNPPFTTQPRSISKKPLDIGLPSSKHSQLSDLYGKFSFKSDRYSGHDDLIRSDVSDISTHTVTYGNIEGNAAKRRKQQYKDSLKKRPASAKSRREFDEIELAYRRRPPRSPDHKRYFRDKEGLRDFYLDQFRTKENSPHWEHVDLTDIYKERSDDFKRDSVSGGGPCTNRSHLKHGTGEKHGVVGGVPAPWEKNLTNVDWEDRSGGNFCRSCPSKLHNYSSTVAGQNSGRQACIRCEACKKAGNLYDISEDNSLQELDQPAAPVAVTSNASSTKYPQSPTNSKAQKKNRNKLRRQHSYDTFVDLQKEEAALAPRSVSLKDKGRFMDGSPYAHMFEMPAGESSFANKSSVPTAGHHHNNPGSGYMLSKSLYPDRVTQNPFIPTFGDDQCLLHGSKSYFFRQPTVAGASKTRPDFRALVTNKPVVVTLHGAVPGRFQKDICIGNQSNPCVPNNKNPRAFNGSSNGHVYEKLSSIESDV
Chain of NR1/NR2B receptor (Mus musculus, UniProt P35438+Q01097) (Q01097 27-1482, other chains not shown): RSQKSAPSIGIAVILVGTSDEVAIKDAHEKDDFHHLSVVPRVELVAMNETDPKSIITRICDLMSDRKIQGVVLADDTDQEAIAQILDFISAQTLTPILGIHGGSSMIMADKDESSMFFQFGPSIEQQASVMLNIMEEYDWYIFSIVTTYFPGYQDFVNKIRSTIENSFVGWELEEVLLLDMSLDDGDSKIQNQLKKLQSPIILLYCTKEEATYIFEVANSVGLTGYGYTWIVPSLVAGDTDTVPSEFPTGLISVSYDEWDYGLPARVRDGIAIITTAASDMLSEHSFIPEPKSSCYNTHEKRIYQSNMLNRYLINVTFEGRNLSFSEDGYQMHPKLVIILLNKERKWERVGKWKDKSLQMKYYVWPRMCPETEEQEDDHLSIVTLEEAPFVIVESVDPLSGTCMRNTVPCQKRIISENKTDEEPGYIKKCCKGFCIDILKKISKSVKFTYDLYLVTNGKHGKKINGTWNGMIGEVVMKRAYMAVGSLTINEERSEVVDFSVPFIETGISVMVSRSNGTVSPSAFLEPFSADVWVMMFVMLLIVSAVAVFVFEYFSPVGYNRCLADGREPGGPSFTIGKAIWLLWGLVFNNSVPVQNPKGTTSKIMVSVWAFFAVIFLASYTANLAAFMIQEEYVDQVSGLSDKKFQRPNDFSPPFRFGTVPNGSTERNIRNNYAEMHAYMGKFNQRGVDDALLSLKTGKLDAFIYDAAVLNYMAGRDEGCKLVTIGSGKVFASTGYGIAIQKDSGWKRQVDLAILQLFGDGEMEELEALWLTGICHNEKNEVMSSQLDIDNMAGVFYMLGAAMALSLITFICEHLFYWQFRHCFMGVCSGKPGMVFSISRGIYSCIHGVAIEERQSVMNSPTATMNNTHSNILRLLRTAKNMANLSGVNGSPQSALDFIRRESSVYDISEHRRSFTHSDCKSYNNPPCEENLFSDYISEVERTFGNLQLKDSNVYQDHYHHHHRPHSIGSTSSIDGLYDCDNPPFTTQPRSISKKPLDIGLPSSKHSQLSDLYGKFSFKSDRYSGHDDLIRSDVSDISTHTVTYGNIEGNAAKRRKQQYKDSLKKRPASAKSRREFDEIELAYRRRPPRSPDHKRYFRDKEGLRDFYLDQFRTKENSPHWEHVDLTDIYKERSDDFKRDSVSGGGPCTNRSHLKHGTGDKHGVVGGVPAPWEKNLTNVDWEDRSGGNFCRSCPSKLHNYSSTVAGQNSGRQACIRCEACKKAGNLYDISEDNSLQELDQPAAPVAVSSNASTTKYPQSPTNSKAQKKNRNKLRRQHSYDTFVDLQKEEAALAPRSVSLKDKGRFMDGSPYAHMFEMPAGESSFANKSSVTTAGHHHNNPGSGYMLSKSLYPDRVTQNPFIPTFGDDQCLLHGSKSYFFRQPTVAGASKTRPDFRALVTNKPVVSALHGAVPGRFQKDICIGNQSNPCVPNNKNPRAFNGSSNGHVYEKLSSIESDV
Chain of NR1/NR2C receptor (Q01098 20-1239, other chains not shown): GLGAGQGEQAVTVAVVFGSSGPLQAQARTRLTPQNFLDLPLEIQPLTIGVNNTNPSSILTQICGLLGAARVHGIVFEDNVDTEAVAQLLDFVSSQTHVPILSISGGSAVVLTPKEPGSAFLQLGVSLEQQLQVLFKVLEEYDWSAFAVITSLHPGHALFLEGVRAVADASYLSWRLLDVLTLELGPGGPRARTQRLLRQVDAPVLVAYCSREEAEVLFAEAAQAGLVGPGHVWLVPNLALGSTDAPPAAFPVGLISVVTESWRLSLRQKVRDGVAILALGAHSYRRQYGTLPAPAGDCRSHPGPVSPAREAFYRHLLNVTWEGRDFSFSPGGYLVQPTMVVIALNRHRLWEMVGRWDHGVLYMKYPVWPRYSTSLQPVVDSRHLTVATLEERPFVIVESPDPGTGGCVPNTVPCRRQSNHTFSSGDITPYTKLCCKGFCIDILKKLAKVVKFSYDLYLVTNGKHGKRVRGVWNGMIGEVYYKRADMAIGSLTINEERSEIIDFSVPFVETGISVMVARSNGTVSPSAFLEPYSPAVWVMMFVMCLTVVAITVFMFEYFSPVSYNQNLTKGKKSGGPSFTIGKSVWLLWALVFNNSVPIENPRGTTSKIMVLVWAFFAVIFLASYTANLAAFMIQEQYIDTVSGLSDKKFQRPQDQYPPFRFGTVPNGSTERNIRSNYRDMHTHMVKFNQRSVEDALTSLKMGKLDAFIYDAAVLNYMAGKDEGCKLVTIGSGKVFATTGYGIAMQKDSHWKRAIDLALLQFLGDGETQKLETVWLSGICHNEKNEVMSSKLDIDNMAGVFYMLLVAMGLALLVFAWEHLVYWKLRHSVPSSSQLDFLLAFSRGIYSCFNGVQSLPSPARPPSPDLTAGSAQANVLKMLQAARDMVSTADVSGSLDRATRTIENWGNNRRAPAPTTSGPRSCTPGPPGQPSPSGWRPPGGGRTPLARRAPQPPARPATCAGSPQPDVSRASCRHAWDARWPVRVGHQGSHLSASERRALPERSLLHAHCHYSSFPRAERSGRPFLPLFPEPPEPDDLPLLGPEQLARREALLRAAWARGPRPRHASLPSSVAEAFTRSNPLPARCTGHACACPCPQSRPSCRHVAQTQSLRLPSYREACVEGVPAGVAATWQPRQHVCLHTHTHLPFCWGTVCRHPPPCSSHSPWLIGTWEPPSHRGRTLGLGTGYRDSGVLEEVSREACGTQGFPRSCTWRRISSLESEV

Row | competition with MK-801 at the PCP receptor (in words) (PCP receptor) | IC50 (PCP receptor) | IC50 (NR1/NR2B receptor [1]) | SMILES | further results
1 | not competitive with MK-801 | 10 µM | 2 nM | O=C(CCCN1CC=C(Cc2ccc(F)cc2)CC1)c1ccc(O)cc1 [Compound 19] | 
2 | not competitive with MK-801 | 3 µM | 4 nM | Cc1ccccc1CC1=CCN(CCCC(=O)c2ccc(O)cc2)CC1 [Compound 18] | ED50 (ICR type male mice; acute pain within 5 minutes, read-out: ED50, the first phase): 1.1 mg/kg; ED50 (ICR type male mice; inflammatory pain 10 to 30 minutes, read-out: ED50, the second phase): 0.7 mg/kg; analgesic effect (in words) (ICR type male mice; mouse, in vivo): confirmed; IC50 (NR1/NR2A receptor): > 30 µM; antagonistic effect on NR1/NR2 subfamilies (in words) (NR1/NR2B receptor [2]): specific antagonistic effect on the NR1/NR2B receptor; IC50 (NR1/NR2B receptor [2]; NMDA 100 μM and glycine 10 μM, -60 mV, Xenopus oocytes): 4.6 µM; IC50 (NR1/NR2C receptor): > 30 µM; IC50 (NR1/NR2D receptor): > 30 µM

Second part, the compound before the results:

Row | SMILES | competition with MK-801 at the PCP receptor (in words) (PCP receptor) | IC50 (PCP receptor) | IC50 (NR1/NR2B receptor [1]) | further results
3 | CC(C(O)c1ccc(O)cc1)N1CCC(O)(c2ccccc2)CC1 (racemic) [CP-101606, reference compound] |  | 13 µM |  | 
4 | O=C(CCCN1CCC(O)(Cc2ccc(OC(F)(F)F)cc2)CC1)c1ccc(O)cc1 [Compound 10] | not competitive with MK-801 | 20 µM | 16 nM | 
5 | O=C(CCCN1CC=C(c2ccc(Cl)cc2)CC1)c1ccc(O)cc1 [Compound 32] |  |  | 3 nM | 
